According to US12122750B2, “AT2R antagonists and uses thereof” (Eli Lilly and Company, priority 2022, dated 2024):

Molecular target: recombinant human angiotensin-II receptor subtype 2 (hAT2R) (Homo sapiens (Human), UniProt P50052)
Test: Competitive radioligand binding assay (SPA), hAT2R HEK293 membranes
Conditions: [125I]-Tyr4-Angiotensin-II, read-out: AT2R Ki
Description: Compound Solubilization Test and reference compounds were received as dry powder reagents, weighed, and solubilized in 100% DMSO to generate a working stock concentration of 10 mM. Membrane Preparation Protocol (hAT2R HEK293 and rAT2R HEK293) hAT2R membranes were prepared from human embryonic kidney (HEK293) cells which were stably transfected with recombinant human angiotensin-II receptor subtype 2 (hAT2R). Cells from the stable cell lines were expanded in tissue culture flasks to generate a large population of cells; cell pellet (>1 gm), and these cell pellets were stored frozen prior to initiating this membrane isolation procedure for each receptor isoform. Frozen cell pellets were thawed in ice-cold homogenization/resuspension buffer (50 mM Tris-HCl, pH 7.5) containing one Complete© protease inhibitor tablet with EDTA (Roche Diagnostics) per 50 mL buffer, and cell pellet was resuspended at a ratio of 10 mL homogenization buffer to gram of starting cell pellet. Cell suspension was homogenized with an overhead motor-driven Teflon-glass homogenizer using 15 to 20 strokes, followed by centrifugation at 1100×g for 10 minutes at 4° C. The supernatant was saved on ice, pellets were homogenized as before, and centrifuged at 1100×g for 10 minutes at 4° C. Both supernatants were combined and subsequently centrifuged at 35,000×g for 60 minutes at 4° C. The final centrifugation pellet (pellet 2) containing the isolated membranes was resuspended in buffer (4 to 5 mL/g of starting cell paste) containing protease inhibitors and quick frozen in liquid nitrogen prior to storage at -80° C. Protein concentration was determined using a BCA kit (ThermoScientific, Inc.) with bovine serum albumin (BSA) as standard. […] The assays were performed with a scintillation proximity assay (SPA) method using polyvinyltoluene (PVT) wheat germ agglutinin-coupled SPA beads (Perkin Elmer Cat. #RPNQ0001). Assay buffer containing BSA (50 mM Tris-HCl, pH 7.5, 150 mM NaCl, 0.1% w/v fatty-acid free BSA) was used for preparing radioligand, membrane and SPA bead reagent dilution to working stock concentrations. Reference control and test compounds were diluted to obtain ten-point concentration response curves using a four-fold serial dilution protocol onto assay plates, dispensed acoustically from DMSO stock using automated ECHO instrument technology (Labcyte, Inc.). Concentration response curves were routinely generated with the highest final assay concentration for the reference angiotensin-II control at 50 nM, and the highest final assay concentration for the test compounds at 50 μM. […] The hAT2R membrane was combined with PVT-WGA SPA beads to obtain a final assay concentration of 0.25 μg/well hAT2R membrane+0.1 mg/well PVT-WGA SPA bead. And the hAT1R membrane PVT-WGA SPA bead final concentrations was 0.5 μg/well hAT1R membrane+0.1 mg/well PVT-WGA SPA bead. […] For all assays, radioligand addition was followed by the addition of membrane-SPA bead mixture, i.e., the hAT2R membrane-SPA bead mixture (30 μL), the rAT2R membrane-SPA bead mixture, or the AT1R membrane-SPA bead mixture (30 μL) into the assay plate. All dispensing steps were added using a Multiflo FX (Biotek, Inc.) bulk dispensing instrument. After reagent addition steps, assay plates were sealed, and plate contents mixed for one minute on a benchtop micro-plate shaker. Following a 10-hour incubation at room temperature to allow for bead settling and radioligand binding, bound radioactivity was quantitated using a Microbeta Trilux scintillation counter (Perkin Elmer) and expressed as counts per minute (CPM). The unlabeled angiotensin-II control was included on each plate as an experimental assay reference. […] Data Analysis Procedures Compounds were tested in a 10-point concentration response curve (CRC) format, with each plate containing the positive control angiotensin-II positive reference compound, and experimental compounds.

Chain of recombinant human angiotensin-II receptor subtype 2 (hAT2R) (P50052 whole entry): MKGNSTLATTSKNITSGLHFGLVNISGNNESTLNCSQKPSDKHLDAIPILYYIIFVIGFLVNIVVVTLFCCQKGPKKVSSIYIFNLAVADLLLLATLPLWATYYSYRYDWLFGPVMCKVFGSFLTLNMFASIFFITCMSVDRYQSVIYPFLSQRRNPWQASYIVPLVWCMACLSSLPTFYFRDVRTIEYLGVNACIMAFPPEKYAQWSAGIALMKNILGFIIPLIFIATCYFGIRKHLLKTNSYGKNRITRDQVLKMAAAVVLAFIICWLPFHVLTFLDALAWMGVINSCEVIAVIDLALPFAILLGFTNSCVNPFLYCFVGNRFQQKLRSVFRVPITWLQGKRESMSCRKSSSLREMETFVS

| SMILES | Ki |
| --- | --- |
| CC(C1CC1)N(C(=O)CC1(C(=O)O)CCN(C(=O)N(C)c2ccc(F)cc2)CC1)c1ccccc1 (single isomer, unassigned) [Example 43B, 4-[2-[N-(1-cyclopropylethyl)anilino]-2-oxo-ethyl]-1-[(4-fluorophenyl)-methyl-carbamoyl]piperidine-4-carboxylic acid] | 20.1 nM |
| CN(C(=O)N1CCC(CC(=O)N(c2ccccc2)C2CCCOC2)(C(=O)O)CC1)c1ccc(C2CC2)cc1 (single isomer, unassigned) [Example 45A, 1-[(4-cyclopropylphenyl)-methyl-carbamoyl]-4-[2-oxo-2-(N-tetrahydropyran-3-ylanilino)ethyl]piperidine-4-carboxylic acid] | 1.55 nM |
| CN(C(=O)N1CCC(CC(=O)N(c2ccccc2)C2CCCOC2)(C(=O)O)CC1)c1ccc(C2CC2)cc1 (single isomer, unassigned) [Example 45B, 1-[(4-cyclopropylphenyl)-methyl-carbamoyl]-4-[2-oxo-2-(N-tetrahydropyran-3-ylanilino)ethyl]piperidine-4-carboxylic acid] | 2.68 nM |
| O=C(N1CCC(CC(=O)N(c2ccccc2)C2CCCC(F)(F)C2)(C(=O)O)CC1)N1CCc2ccc(F)cc21 (single isomer, unassigned) [Example 72A, 4-[2-(N-(3,3-difluorocyclohexyl)anilino)-2-oxo-ethyl]-1-(6-fluoroindoline-1-carbonyl)piperidine-4-carboxylic acid] | 8.14 nM |
| O=C(N1CCC(CC(=O)N(c2ccccc2)C2CCCC(F)(F)C2)(C(=O)O)CC1)N1CCc2ccc(F)cc21 (single isomer, unassigned) [Example 72B, 4-[2-(N-(3,3-difluorocyclohexyl)anilino)-2-oxo-ethyl]-1-(6-fluoroindoline-1-carbonyl)piperidine-4-carboxylic acid] | 0.383 nM |
| CC(C)(C)OC(=O)N1CCC(CC(=O)N(c2ccccc2)C2CCCC(F)(F)C2)(C(=O)O)CC1 (single isomer, unassigned) [compound 42] | 3.94 nM |
| CCCCCn1c(Br)nnc1N1CCC(CC(=O)N(c2ccccc2)c2ccccc2)(C(=O)O)CC1 [Example 4, 1-(5-bromo-4-pentyl-1,2,4-triazol-3-yl)-4-[2-oxo-2-(N-phenylanilino)ethyl]piperidine-4-carboxylic acid] | 5.13 nM |
| O=C(CC1(C(=O)O)CCN(c2ncncc2C2CC2)CC1)N(c1ccccc1)c1ccccc1 [Example 5, 1-(5-cyclopropylpyrimidin-4-yl)-4-(2-(diphenylamino)-2-oxoethyl)piperidine-4-carboxylic acid] | 9.15 nM |
| O=C(N1CCC(CC(=O)N(c2ccccc2)C2CCCCC2)(C(=O)O)CC1)N1CCc2ccccc21 [Example 6, 4-[2-(N-cyclohexylanilino)-2-oxo-ethyl]-1-(indoline-1-carbonyl)piperidine-4-carboxylic acid] | 9.08 nM |
| CN(C(=O)N1CCC(CC(=O)N(c2ccccc2)C2CCC(F)(F)CC2)(C(=O)O)CC1)c1ccc(F)cc1 [Example 8, 4-[2-(N-(4,4-difluorocyclohexyl)anilino)-2-oxo-ethyl]-1-[(4-fluorophenyl)-methyl-carbamoyl]piperidine-4-carboxylic acid] | 3.02 nM |
| CN(C(=O)N1CCC(CC(=O)N(c2ccccc2)C2CCCC2)(C(=O)O)CC1)c1ccc(F)cc1 [Example 9, 4-[2-(N-cyclopentylanilino)-2-oxo-ethyl]-1-[(4-fluorophenyl)-methyl-carbamoyl]piperidine-4-carboxylic acid] | 2.62 nM |
| CN(C(=O)N1CCC(CC(=O)N(c2ccccc2)C2CCCCC2)(C(=O)O)CC1)c1ccccc1F [Example 12, 4-[2-(N-cyclohexylanilino)-2-oxo-ethyl]-1-[(2-fluorophenyl)-methyl-carbamoyl]piperidine-4-carboxylic acid] | 0.521 nM |
| Cc1ccc(N(C)C(=O)N2CCC(CC(=O)N(c3ccccc3)C3CCCCC3)(C(=O)O)CC2)cc1 [Example 13, 4-[2-(N-cyclohexylanilino)-2-oxo-ethyl]-1-[methyl(p-tolyl)carbamoyl]piperidine-4-carboxylic acid] | 1.44 nM |
| COc1ccc(N(C)C(=O)N2CCC(CC(=O)N(c3ccccc3)C3CCCCC3)(C(=O)O)CC2)cc1 [Example 14, 4-[2-(N-cyclohexylanilino)-2-oxo-ethyl]-1-[(4-methoxyphenyl)-methyl-carbamoyl]piperidine-4-carboxylic acid] | 2.58 nM |
| CCN(C(=O)N1CCC(CC(=O)N(c2ccccc2)C2CCCCC2)(C(=O)O)CC1)c1ccc(F)cc1 [Example 15, 4-[2-(N-cyclohexylanilino)-2-oxo-ethyl]-1-[ethyl-(4-fluorophenyl)carbamoyl]piperidine-4-carboxylic acid] | 1.69 nM |
| O=C(CC1(C(=O)O)CCN(C(=O)N(c2ccc(F)cc2)C2CC2)CC1)N(c1ccccc1)C1CCCCC1 [Example 16, 4-[2-(N-cyclohexylanilino)-2-oxo-ethyl]-1-[cyclopropyl-(4-fluorophenyl)carbamoyl]piperidine-4-carboxylic acid] | 1.76 nM |
| CN(C(=O)N1CCC(CC(=O)N(c2ccccc2)C2CCOCC2)(C(=O)O)CC1)c1ccc(C2CC2)cc1 [Example 26, 1-[(4-cyclopropylphenyl)-methyl-carbamoyl]-4-[2-oxo-2-(N-tetrahydropyran-4-ylanilino)ethyl]piperidine-4-carboxylic acid] | 5.39 nM |
| N#Cc1ccc2c(c1)N(C(=O)N1CCC(CC(=O)N(c3ccccc3)C3CCCCC3)(C(=O)O)CC1)CC2 [Example 33, 1-(6-cyanoindoline-1-carbonyl)-4-[2-(N-cyclohexylanilino)-2-oxo-ethyl]piperidine-4-carboxylic acid] | 1.94 nM |
| Cc1ccccc1N(C(=O)CC1(C(=O)O)CCN(C(=O)N(C)c2ccc(F)cc2)CC1)c1ccccc1 [Example 37, 1-[(4-fluorophenyl)-methyl-carbamoyl]-4-[2-[N-(o-tolyl)anilino]-2-oxo-ethyl]piperidine-4-carboxylic acid] | 0.987 nM |
| CC(C)N(C(=O)N1CCC(CC(=O)N(c2ccccc2)c2ccccc2F)(C(=O)O)CC1)c1ccc(F)cc1 [Example 38, 4-[2-(N-(2-fluorophenyl)anilino)-2-oxo-ethyl]-1-[(4-fluorophenyl)-isopropyl-carbamoyl]piperidine-4-carboxylic acid] | 6.46 nM |
| O=C(CC1(C(=O)O)CCN(C(=O)N(c2ccc(F)cc2)C2CC2)CC1)N(c1ccccc1)c1ccccc1 [Example 39, 1-[cyclopropyl-(4-fluorophenyl)carbamoyl]-4-[2-oxo-2-(N-phenylanilino)ethyl]piperidine-4-carboxylic acid] | 2.82 nM |
| O=C(CC1(C(=O)O)CCN(C(=O)N(c2ccc(F)cc2)C2CC2)CC1)N(c1ccccc1)c1ccccc1F [Example 40, 1-[cyclopropyl-(4-fluorophenyl)carbamoyl]-4-[2-(N-(2-fluorophenyl)anilino)-2-oxo-ethyl]piperidine-4-carboxylic acid] | 1.37 nM |
| CN(C(=O)N1CCC(CC(=O)N(c2ccccc2F)c2ccccc2F)(C(=O)O)CC1)c1ccccc1 [Example 46, 4-[2-(2-fluoro-N-(2-fluorophenyl)anilino)-2-oxo-ethyl]-1-[methyl(phenyl)carbamoyl]piperidine-4-carboxylic acid] | 0.409 nM |
| O=C(CC1(C(=O)O)CCN(c2ccccc2)CC1)N(c1ccccc1)C1CCCCC1 [Example 48, 4-[2-(N-cyclohexylanilino)-2-oxo-ethyl]-1-phenyl-piperidine-4-carboxylic acid] | 3.59 nM |
| O=C(CC1(C(=O)O)CCN(c2ccccn2)CC1)N(c1ccccc1)C1CCCCC1 [Example 49, 4-[2-(N-cyclohexylanilino)-2-oxo-ethyl]-1-(2-pyridyl)piperidine-4-carboxylic acid] | 5.21 nM |
